This is an account of results in patent US8741614B2, “Crystal structure of isoglutaminyl cyclase” (Probiodrug AG, priority 2010, dated 2014).

The target of one series is human QC (Homo sapiens, UniProt Q16769). Nature of the series: inhibition of human QC in vitro. It is filed as biochemical.
For another series, the target named is mouse QC (Mus musculus, UniProt Q9CYK2). Nature of the series: inhibition of mouse QC in vitro. It is filed as biochemical.
The nature of the next series: solubility in water. The class given is physicochemical.

Chain of human QC (Q16769 29-361): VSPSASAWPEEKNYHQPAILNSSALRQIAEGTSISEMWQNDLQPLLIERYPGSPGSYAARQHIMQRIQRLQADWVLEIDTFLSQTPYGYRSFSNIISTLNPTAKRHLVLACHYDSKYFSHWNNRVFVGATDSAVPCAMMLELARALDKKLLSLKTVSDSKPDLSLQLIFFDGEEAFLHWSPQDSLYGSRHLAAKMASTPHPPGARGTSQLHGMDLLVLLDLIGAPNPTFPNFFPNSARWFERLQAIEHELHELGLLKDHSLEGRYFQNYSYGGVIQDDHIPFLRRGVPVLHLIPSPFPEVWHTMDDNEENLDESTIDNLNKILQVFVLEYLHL
Chain of mouse QC (Q9CYK2 36-362): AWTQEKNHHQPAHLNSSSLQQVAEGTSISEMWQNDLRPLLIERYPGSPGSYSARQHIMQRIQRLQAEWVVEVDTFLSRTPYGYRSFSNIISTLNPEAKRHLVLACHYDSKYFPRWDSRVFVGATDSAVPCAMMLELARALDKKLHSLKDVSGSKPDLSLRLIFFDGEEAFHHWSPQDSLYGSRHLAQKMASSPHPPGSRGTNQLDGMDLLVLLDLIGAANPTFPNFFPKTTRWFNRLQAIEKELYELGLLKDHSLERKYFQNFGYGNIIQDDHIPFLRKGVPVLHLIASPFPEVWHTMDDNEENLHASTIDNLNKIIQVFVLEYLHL

Take `COc1ccc(NC(=S)NCCCn2ccnc2)cc1OC` [Inhibitor A, 1-(3-(1H-Imidazol-1-yl)propyl)-3-(3,4-dimethoxyphenyl)thiourea]: the “inhibition of human QC” value at human QC was “inhibits”. The “inhibition of mouse QC” value on mouse QC is reported as “inhibits”. The solubility in water entry in “solubility in water” was “soluble in water”.
